Legend:
Format in all cases: cell-based
[1] = molecular target: T1, human PAC1 receptor (Homo sapiens, UniProt P41586); assay: cAMP stimulation in CHO cells expressing PAC1; conditions: for Emax: CHO
T1 construct: expressed in transfected cells; host or cells: CHO cells (G418 selection)
T1 sequence (P41586 21-468): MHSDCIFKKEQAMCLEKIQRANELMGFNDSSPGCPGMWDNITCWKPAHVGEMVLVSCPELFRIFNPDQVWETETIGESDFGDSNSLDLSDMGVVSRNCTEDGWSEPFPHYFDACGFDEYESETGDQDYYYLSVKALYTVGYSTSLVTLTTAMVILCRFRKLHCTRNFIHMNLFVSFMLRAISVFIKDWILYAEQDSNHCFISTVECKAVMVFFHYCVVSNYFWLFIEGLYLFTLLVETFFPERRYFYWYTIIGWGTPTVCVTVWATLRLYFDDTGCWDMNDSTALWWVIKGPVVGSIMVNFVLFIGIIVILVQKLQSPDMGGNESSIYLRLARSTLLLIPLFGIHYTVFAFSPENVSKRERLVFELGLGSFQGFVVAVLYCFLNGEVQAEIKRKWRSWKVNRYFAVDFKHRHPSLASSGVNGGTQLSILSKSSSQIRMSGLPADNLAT
Procedure: (§1) Briefly, human PAC1, VPAC1, and VPAC2 receptors expressed in CHO cells were used for all experiments. Cells were grown in 50:50 DMEM-F12 medium with 10% heat-inactivated fetal bovine serum, 1X penicillin-streptomycin supplement, and 500 μg/ml G418 (neomycin) to maintain selection (all from ThermoFisher) at 37°C with 5% CO2 atmosphere. For the cAMP assay, cells were seeded at 20,000 cells/well in a 96 well plate, recovered overnight, then serum starved for 4 h. The cells were then incubated with 500 μM IBMX for 20 min, followed by agonist concentration curves in 500 μM IBMX media for 10 min. The reaction was terminated, boiled, then collected, followed by competition with 7 μg of bovine protein kinase A (Sigma-Aldrich) and ∼1 pmol of ^3H-cAMP (PerkinElmer). The assay was incubated at room temp for 1 h, then collected onto GF/B filter plates and the data read using a MicroBeta2 scintillation counter (PerkinElmer).

[2] = molecular target: T2, human VPAC1 receptor (Homo sapiens, UniProt P32241); assay: cAMP stimulation in CHO cells expressing VPAC1; conditions: for Emax: CHO, read-out: VPAC1 Emax; for Receptor selectivity ratio VPAC1/PAC1: ratio of cAMP EC50 values; for EC50: read-out: VPAC1 EC50
T2 construct: expressed in transfected cells; host or cells: CHO cells (G418 selection)
T2 sequence (P32241 31-457): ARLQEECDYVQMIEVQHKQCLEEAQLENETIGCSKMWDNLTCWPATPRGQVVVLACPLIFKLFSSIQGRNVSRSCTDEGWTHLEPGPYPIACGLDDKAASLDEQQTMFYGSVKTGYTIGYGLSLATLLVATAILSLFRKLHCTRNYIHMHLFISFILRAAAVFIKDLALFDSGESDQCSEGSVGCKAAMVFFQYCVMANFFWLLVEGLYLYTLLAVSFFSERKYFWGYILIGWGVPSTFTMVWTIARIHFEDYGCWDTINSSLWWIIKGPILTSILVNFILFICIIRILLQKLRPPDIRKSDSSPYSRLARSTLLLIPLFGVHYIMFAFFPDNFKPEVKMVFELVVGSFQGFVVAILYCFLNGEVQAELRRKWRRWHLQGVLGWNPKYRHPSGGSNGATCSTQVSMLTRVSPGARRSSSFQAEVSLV

[3] = molecular target: T3, human VPAC2 receptor (Homo sapiens, UniProt P41587); assay: cAMP stimulation in CHO cells expressing VPAC2; conditions: for Emax: CHO; for Receptor selectivity ratio VPAC2/PAC1 / Receptor selectivity ratio VPAC2/VPAC1: ratio of cAMP EC50 values
T3 construct: expressed in transfected cells; host or cells: CHO cells (G418 selection)
T3 sequence (P41587 24-438): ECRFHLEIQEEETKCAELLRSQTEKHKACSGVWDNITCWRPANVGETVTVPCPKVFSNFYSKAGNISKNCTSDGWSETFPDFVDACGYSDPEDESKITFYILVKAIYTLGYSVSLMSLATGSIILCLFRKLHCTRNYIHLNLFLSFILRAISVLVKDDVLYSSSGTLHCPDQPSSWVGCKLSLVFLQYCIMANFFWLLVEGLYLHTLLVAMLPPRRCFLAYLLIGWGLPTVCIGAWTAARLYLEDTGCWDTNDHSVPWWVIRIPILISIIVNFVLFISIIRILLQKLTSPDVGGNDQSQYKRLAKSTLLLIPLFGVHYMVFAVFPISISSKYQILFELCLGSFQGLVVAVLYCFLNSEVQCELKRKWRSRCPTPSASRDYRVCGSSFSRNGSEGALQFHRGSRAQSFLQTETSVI
Procedure: as §1

| SMILES | EC50 [1] [nM] | Emax [1] [%] | Emax [2] [%] | Receptor selectivity ratio VPAC1/PAC1 [2] | EC50 [2] [nM] | EC50 [3] [nM] | Emax [3] [%] | Receptor selectivity ratio VPAC2/PAC1 [3] | Receptor selectivity ratio VPAC2/VPAC1 [3] | Selectivity for PAC1 over VPAC1 ([1]; from cAMP EC50 values) [fold] | Selectivity for PAC1 over VPAC2 ([1]; from cAMP EC50 values) [fold] |
| --- | --- | --- | --- | --- | --- | --- | --- | --- | --- | --- | --- |
| CC[C@H](C)[C@H](NC(=O)CNC(=O)[C@H](CC(=O)O)NC(=O)[C@H](CO)NC(=O)[C@H](Cc1c[nH]cn1)NC(C)=O)C(=O)N[C@@H](Cc1ccccc1)C(=O)N[C@H](C(=O)N[C@@H](CC(=O)O)C(=O)N[C@@H](CO)C(=O)N[C@@H](Cc1ccc(O)cc1)C(=O)N[C@@H](CO)C(=O)N[C@@H](CCCNC(=N)N)C(=O)N[C@@H](Cc1ccc(O)cc1)C(=O)N[C@@H](CCCNC(=N)N)C(=O)N[C@@H](CCCCN)C(=O)N[C@@H](CCC(N)=O)C(=O)N[C@@H](CC(C)C)C(=O)N[C@@H](C)C(=O)N[C@H](C(=O)N[C@@H](CCCCN)C(=O)N[C@@H](CCCCN)C(=O)N[C@@H](Cc1ccc(O)cc1)C(=O)N[C@@H](CC(C)C)C(=O)N[C@@H](C)C(=O)N[C@@H](C)C(=O)N[C@H](C(=O)N[C@@H](CC(C)C)C(=O)N[C@@H](CO[C@@H]1O[C@H](CO)[C@@H](O[C@@H]2O[C@H](CO)[C@H](O)[C@H](O)[C@H]2O)[C@H](O)[C@H]1O)C(N)=O)C(C)C)C(C)C)[C@@H](C)O [Ac-2LS132] | 2.8 | 96 | 98 | 0.79 | 2.2 | 27.2 | 101 | 9.71 | 12.36 |  |  |
| CCC[C@H](NC(=O)[C@H](CCC(N)=O)NC(=O)[C@H](CCCCN)NC(=O)[C@H](CCCNC(=N)N)NC(=O)[C@H](Cc1ccc(O)cc1)NC(=O)[C@H](CCCNC(=N)N)NC(=O)[C@H](CO)NC(=O)[C@H](Cc1ccc(O)cc1)NC(=O)[C@H](CO)NC(=O)[C@H](CC(=O)O)NC(=O)[C@@H](NC(=O)[C@H](Cc1ccccc1)NC(=O)[C@H](C)NC(=O)CNC(=O)[C@H](CC(=O)O)NC(=O)[C@@H](CO)NC(=O)[C@@H](N)Cc1c[nH]cn1)[C@@H](C)O)C(=O)N[C@@H](C)C(=O)N[C@H](C(=O)N[C@@H](CCCCN)C(=O)N[C@@H](CCCCN)C(=O)N[C@@H](Cc1ccc(O)cc1)C(=O)N[C@@H](CC(C)C)C(=O)N[C@@H](C)C(=O)N[C@@H](C)C(=O)N[C@H](C(=O)N[C@@H](CC(C)C)C(=O)N[C@@H](CO[C@@H]1O[C@H](CO)[C@@H](O)[C@H](O)[C@H]1O)C(N)=O)C(C)C)C(C)C [CRA 3014] | 205 | 79 | 122 | 0.64 | 132 | 2650 | 122 | 12.95 | 20.11 |  |  |
| CCC[C@H](NC(=O)[C@H](CCC(N)=O)NC(=O)[C@H](CCCCN)NC(=O)[C@H](CCCNC(=N)N)NC(=O)[C@H](Cc1ccc(O)cc1)NC(=O)[C@H](CCCNC(=N)N)NC(=O)[C@H](CO)NC(=O)[C@H](Cc1ccc(O)cc1)NC(=O)[C@H](CO)NC(=O)[C@H](CC(=O)O)NC(=O)[C@@H](NC(=O)[C@H](Cc1ccccc1)NC(=O)[C@@H](NC(=O)CCNC(=O)[C@H](CC(=O)O)NC(=O)[C@@H](CO)NC(=O)[C@@H](N)Cc1c[nH]cn1)[C@@H](C)CC)[C@@H](C)O)C(=O)N[C@@H](C)C(=O)N[C@H](C(=O)N[C@@H](CCCCN)C(=O)N[C@@H](CCCCN)C(=O)N[C@@H](Cc1ccc(O)cc1)C(=O)N[C@@H](CC(C)C)C(=O)N[C@@H](C)C(=O)N[C@@H](C)C(=O)N[C@H](C(=O)N[C@@H](CC(C)C)C(=O)N[C@@H](CO[C@@H]1O[C@H](CO)[C@@H](O)[C@H](O)[C@H]1O)C(N)=O)C(C)C)C(C)C [CRA3008] | 159 | 76 | 108 | 1.27 | 202 | 737 | 65 | 4.64 | 3.65 |  |  |
| CCC[C@H](NC(=O)[C@H](CCC(N)=O)NC(=O)[C@H](CCCCN)NC(=O)[C@H](CCCNC(=N)N)NC(=O)[C@H](Cc1ccc(O)cc1)NC(=O)[C@H](CCCNC(=N)N)NC(=O)[C@H](CO)NC(=O)[C@H](Cc1ccc(O)cc1)NC(=O)[C@H](CO)NC(=O)[C@H](CC(=O)O)NC(=O)[C@@H](NC(=O)[C@H](Cc1ccccc1)NC(=O)[C@@H](NC(=O)CNC(=O)[C@H](CC(=O)O)NC(=O)[C@@H](CO)NC(=O)[C@@H](N)Cc1c[nH]cn1)[C@@H](C)CC)[C@@H](C)O)C(=O)N[C@@H](C)C(=O)N[C@H](C(=O)N[C@@H](CCCCN)C(=O)N[C@@H](CCCCN)C(=O)N[C@@H](Cc1ccc(O)cc1)C(=O)N[C@@H](CC(C)C)C(=O)N[C@@H](C)C(=O)N[C@@H](C)C(=O)N[C@H](C(=O)N[C@@H](CC(C)C)C(=O)N[C@@H](CO[C@@H]1O[C@H](CO)[C@@H](O[C@@H]2O[C@H](CO)[C@H](O)[C@H](O)[C@H]2O)[C@H](O)[C@H]1O)C(N)=O)C(C)C)C(C)C [CRA 3000-Lac] |  | 92 | 96 |  |  |  | 116 |  |  |  |  |
| CCC[C@H](NC(=O)[C@H](CCC(N)=O)NC(=O)[C@H](CCCCN)NC(=O)[C@H](CCCNC(=N)N)NC(=O)[C@H](Cc1ccc(O)cc1)NC(=O)[C@H](CCCNC(=N)N)NC(=O)[C@H](CO)NC(=O)[C@H](Cc1ccc(O)cc1)NC(=O)[C@H](CO)NC(=O)[C@H](CC(=O)O)NC(=O)[C@@H](NC(=O)[C@H](Cc1ccccc1)NC(=O)[C@@H](NC(=O)CN(C)C(=O)[C@H](CC(=O)O)NC(=O)[C@@H](CO)NC(=O)[C@@H](N)Cc1c[nH]cn1)[C@@H](C)CC)[C@@H](C)O)C(=O)N[C@@H](C)C(=O)N[C@H](C(=O)N[C@@H](CCCCN)C(=O)N[C@@H](CCCCN)C(=O)N[C@@H](Cc1ccc(O)cc1)C(=O)N[C@@H](CC(C)C)C(=O)N[C@@H](C)C(=O)N[C@@H](C)C(=O)N[C@H](C(=O)N[C@@H](CC(C)C)C(=O)N[C@@H](CO[C@@H]1O[C@H](CO)[C@@H](O)[C@H](O)[C@H]1O)C(N)=O)C(C)C)C(C)C [CRA 3007] | 30 | 88 | 111 | 5.50 | 165 | 706 | 70 | 23.53 | 4.28 | ~5 | ~24 |
| CCC[C@H](NC(=O)CNC(=O)[C@H](CC(=O)O)NC(=O)[C@@H](CO)NC(=O)[C@@H](N)Cc1c[nH]cn1)C(=O)N[C@@H](Cc1ccccc1)C(=O)N[C@H](C(=O)N[C@@H](CC(=O)O)C(=O)N[C@@H](CO)C(=O)N[C@@H](Cc1ccc(O)cc1)C(=O)N[C@@H](CO)C(=O)N[C@@H](CCCNC(=N)N)C(=O)N[C@@H](Cc1ccc(O)cc1)C(=O)N[C@@H](CCCNC(=N)N)C(=O)N[C@@H](CCCCN)C(=O)N[C@@H](CCC(N)=O)C(=O)N[C@@H](CCC)C(=O)N[C@@H](C)C(=O)N[C@H](C(=O)N[C@@H](CCCCN)C(=O)N[C@@H](CCCCN)C(=O)N[C@@H](Cc1ccc(O)cc1)C(=O)N[C@@H](CC(C)C)C(=O)N[C@@H](C)C(=O)N[C@@H](C)C(=O)N[C@H](C(=O)N[C@@H](CC(C)C)C(=O)N[C@@H](CO[C@@H]1O[C@H](CO)[C@@H](O)[C@H](O)[C@H]1O)C(N)=O)C(C)C)C(C)C)[C@@H](C)O [CRA 3016] | 25.4 | 93 | 109 | 1.13 | 28.6 | 291 | 105 | 11.46 | 10.17 |  |  |

Reference: publication PMC8887546, “Design and Synthesis of Brain Penetrant Glycopeptide Analogues of PACAP With Neuroprotective Potential for Traumatic Brain Injury and Parkinsonism” (Frontiers in drug discovery, 2022)
